Data from US12139520B2 (priority 2020, dated 2024).
Numbered stars: 1 amine (or outer) side, 2 acyl side, 3 side chain; on linkers, the order of the positions; unused ones are H or OH. Bridge positions count the residues as written; N and C are the ends. Square brackets hold non-standard residues; d marks the D form. Peptide text beside a SMILES is read from it. * marks the point of attachment. C20 diacid = O=C(O)CCCCCCCCCCCCCCCCCCC(=O)*; γGlu = O=C(O)[C@H](CCC(=O)[*:2])N[*:1]; Hyp = O=C(O)[C@@H]1C[C@@H](O)CN1; Aib = CC(C)(N)C(=O)O

What was measured:
[1] = molecular target: T1, hAMY3 receptor (Homo sapiens, UniProt O60896+P30988); test: cAMP assay for in vitro receptor activation, hAMY3-R; format: cell-based; conditions: cAMP assay, hAMY3 receptor; read-out: hAMY3R EC50
T1 sequence (P30988 25-474): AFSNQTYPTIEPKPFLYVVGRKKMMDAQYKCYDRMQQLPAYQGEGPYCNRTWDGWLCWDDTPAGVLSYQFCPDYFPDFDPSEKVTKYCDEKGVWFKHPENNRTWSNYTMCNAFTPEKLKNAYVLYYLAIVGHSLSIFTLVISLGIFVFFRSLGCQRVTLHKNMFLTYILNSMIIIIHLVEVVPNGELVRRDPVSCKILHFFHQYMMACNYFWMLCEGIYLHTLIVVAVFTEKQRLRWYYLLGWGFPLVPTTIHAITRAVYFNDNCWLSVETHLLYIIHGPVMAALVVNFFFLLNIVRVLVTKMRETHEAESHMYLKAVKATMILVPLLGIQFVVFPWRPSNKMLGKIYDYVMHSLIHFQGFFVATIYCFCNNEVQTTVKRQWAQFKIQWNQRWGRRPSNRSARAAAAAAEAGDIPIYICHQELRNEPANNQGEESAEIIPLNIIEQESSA
T1 sequence (O60896 24-148 partner): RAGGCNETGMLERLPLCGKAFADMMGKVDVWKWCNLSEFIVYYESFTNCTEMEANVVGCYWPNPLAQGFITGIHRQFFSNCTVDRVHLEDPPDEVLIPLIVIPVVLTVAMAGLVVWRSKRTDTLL
How it was run: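 Monoclonal cell line stably overexpressing human AMY3 receptor, 2000 cells/well in DPBS with 0.05% casein and 0.5 mM IBMX. Stimulated 30 min at room temperature with graded compound doses, human amylin as positive control. cAMP accumulation read by TR-FRET after one hour.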

[2] = molecular target: hAM1 receptor (Homo sapiens, UniProt O60895+Q16602); test: cAMP assay for in vitro receptor activation, hAM1-R; format: cell-based; conditions: cAMP assay, hAM1 receptor; read-out: hAM1R EC50
Sequence of hAM1 receptor (Q16602 23-461): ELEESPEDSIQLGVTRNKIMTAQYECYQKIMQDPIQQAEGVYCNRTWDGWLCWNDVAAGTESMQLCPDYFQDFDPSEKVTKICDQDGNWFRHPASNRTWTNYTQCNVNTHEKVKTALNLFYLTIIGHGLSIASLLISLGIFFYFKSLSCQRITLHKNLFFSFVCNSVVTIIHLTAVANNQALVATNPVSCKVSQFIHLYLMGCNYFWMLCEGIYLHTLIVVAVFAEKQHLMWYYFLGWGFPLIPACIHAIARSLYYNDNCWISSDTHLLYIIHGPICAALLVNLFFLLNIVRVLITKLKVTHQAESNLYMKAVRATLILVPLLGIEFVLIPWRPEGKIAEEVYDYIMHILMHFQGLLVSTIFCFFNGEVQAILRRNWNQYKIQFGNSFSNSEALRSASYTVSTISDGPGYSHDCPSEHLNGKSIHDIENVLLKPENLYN
Sequence of hAM1 receptor (O60895 43-175 partner): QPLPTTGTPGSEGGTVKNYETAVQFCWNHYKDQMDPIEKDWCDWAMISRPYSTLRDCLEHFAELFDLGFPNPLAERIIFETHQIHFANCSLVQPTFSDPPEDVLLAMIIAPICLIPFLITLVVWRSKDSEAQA
How it was run: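 Receptor activation, read as cAMP, was assessed in thawed cells of a monoclonal hAM1-overexpressing stable line, plated at 8000 cells/well in DPBS supplemented with 0.05% casein and 0.5 mM IBMX.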

EC50 [1] [nM]	EC50 [2] [µM]	SMILES
0.012	> 5	CC[C@H](C)[C@H](NC(=O)[C@H](CCC(N)=O)NC(=O)[C@H](Cc1c[nH]cn1)NC(=O)[C@H](C)NC(=O)[C@H](CC(C)C)NC(=O)[C@H](CCCNC(=N)N)NC(=O)[C@H](CCC(N)=O)NC(=O)[C@@H](NC(=O)[C@@H](NC(=O)[C@@H]1CSSC[C@H](NC(=O)[C@H](CCCCN)NC(=O)CC[C@H](NC(=O)CCCCCCCCCCCCCCCCCCC(=O)O)C(=O)O)C(=O)N[C@@H](CC(N)=O)C(=O)N[C@@H]([C@@H](C)O)C(=O)N[C@@H](C)C(=O)N[C@@H]([C@@H](C)O)C(=O)N1)[C@@H](C)O)C(C)C)C(=O)N[C@@H](C)C(=O)N[C@@H](CCC(N)=O)C(=O)N[C@@H](Cc1ccccc1)C(=O)N[C@H](C(=O)N[C@@H](CC(=O)O)C(=O)N[C@@H](CCCCN)C(=O)N[C@@H](CC(=O)O)C(=O)N[C@@H](CCCCN)C(=O)N[C@@H](CC(=O)O)C(=O)N[C@@H](CC(N)=O)C(=O)N[C@H](C(=O)N[C@@H](C)C(=O)N1CCC[C@H]1C(=O)N1CCC[C@H]1C(=O)N[C@H](C(=O)N[C@@H](CC(N)=O)C(=O)N[C@H](C(=O)NCC(=O)N[C@@H](CO)C(=O)N[C@@H](CC(N)=O)C(=O)NCC(=O)N1C[C@H](O)C[C@H]1C(N)=O)C(C)C)[C@@H](C)O)C(C)C)[C@@H](C)O [compound 61] ({C20 diacid-γGlu}-KCNTATCTVQRLAHQIAQFTDKDKDNVAPPTNVGSNG[Hyp]-NH2; disulfide 2-7)
0.02	> 5	CC[C@H](C)[C@H](NC(=O)[C@H](CCC(N)=O)NC(=O)[C@H](Cc1c[nH]cn1)NC(=O)[C@H](C)NC(=O)[C@H](CC(C)C)NC(=O)[C@H](CCCNC(=N)N)NC(=O)[C@H](CCC(N)=O)NC(=O)[C@@H](NC(=O)[C@@H](NC(=O)[C@@H]1CSSC[C@H](NC(=O)[C@H](CCCCN)NC(=O)CC[C@H](NC(=O)CCCCCCCCCCCCCCCCCCC(=O)O)C(=O)O)C(=O)N[C@@H](CC(N)=O)C(=O)N[C@@H]([C@@H](C)O)C(=O)N[C@@H](C)C(=O)N[C@@H]([C@@H](C)O)C(=O)N1)[C@@H](C)O)C(C)C)C(=O)N[C@@H](CCC(=O)O)C(=O)N[C@@H](CCC(N)=O)C(=O)N[C@@H](Cc1ccccc1)C(=O)N[C@H](C(=O)N[C@@H](CC(=O)O)C(=O)N[C@@H](CCCCN)C(=O)N[C@@H](CC(=O)O)C(=O)N[C@@H](CCCCN)C(=O)N[C@@H](CC(=O)O)C(=O)N[C@@H](CC(N)=O)C(=O)N[C@H](C(=O)N[C@@H](C)C(=O)N1CCC[C@H]1C(=O)N1CCC[C@H]1C(=O)N[C@H](C(=O)N[C@@H](CC(N)=O)C(=O)N[C@H](C(=O)NCC(=O)N[C@@H](CO)C(=O)N[C@@H](CC(N)=O)C(=O)NCC(=O)N1C[C@H](O)C[C@H]1C(N)=O)C(C)C)[C@@H](C)O)C(C)C)[C@@H](C)O [compound 110] ({C20 diacid-γGlu}-KCNTATCTVQRLAHQIEQFTDKDKDNVAPPTNVGSNG[Hyp]-NH2; disulfide 2-7)

Further lines, the compound ahead of its results:

SMILES	EC50 [1] [nM]	EC50 [2] [µM]
CC[C@H](C)[C@H](NC(=O)[C@H](CCC(N)=O)NC(=O)[C@H](Cc1c[nH]cn1)NC(=O)[C@H](C)NC(=O)[C@H](CC(C)C)NC(=O)[C@H](CCCNC(=N)N)NC(=O)[C@H](CCC(N)=O)NC(=O)[C@@H](NC(=O)[C@@H](NC(=O)[C@@H]1CSSC[C@H](NC(=O)[C@H](CCCCN)NC(=O)CC[C@H](NC(=O)CCCCCCCCCCCCCCCCCCC(=O)O)C(=O)O)C(=O)N[C@@H](CC(N)=O)C(=O)N[C@@H]([C@@H](C)O)C(=O)NC(C)(C)C(=O)N[C@@H]([C@@H](C)O)C(=O)N1)[C@@H](C)O)C(C)C)C(=O)N[C@@H](Cc1ccc(O)cc1)C(=O)N[C@@H](CCC(N)=O)C(=O)N[C@@H](Cc1ccccc1)C(=O)N[C@H](C(=O)N[C@@H](CC(=O)O)C(=O)N[C@@H](CCCCN)C(=O)N[C@@H](CC(=O)O)C(=O)N[C@@H](CCCCN)C(=O)N[C@@H](CC(=O)O)C(=O)N[C@@H](CC(N)=O)C(=O)N[C@H](C(=O)N[C@@H](C)C(=O)N1CCC[C@H]1C(=O)N1CCC[C@H]1C(=O)N[C@H](C(=O)N[C@@H](CC(N)=O)C(=O)N[C@H](C(=O)NCC(=O)N[C@@H](CO)C(=O)N[C@@H](CC(N)=O)C(=O)NCC(=O)N1C[C@H](O)C[C@H]1C(N)=O)C(C)C)[C@@H](C)O)C(C)C)[C@@H](C)O [compound 119] ({C20 diacid-γGlu}-KCNT[Aib]TCTVQRLAHQIYQFTDKDKDNVAPPTNVGSNG[Hyp]-NH2; disulfide 2-7)	0.024	> 5
CC[C@H](C)[C@H](NC(=O)[C@H](CCC(N)=O)NC(=O)[C@H](CC(=O)O)NC(=O)[C@H](C)NC(=O)[C@H](CC(C)C)NC(=O)[C@H](CCCNC(=N)N)NC(=O)[C@H](CC(N)=O)NC(=O)[C@@H](NC(=O)[C@@H](NC(=O)[C@@H]1CSSC[C@H](NC(=O)[C@@H](N)CCCNC(=N)N)C(=O)N[C@@H](CC(N)=O)C(=O)N[C@@H](C)C(=O)N[C@@H](CO)C(=O)N[C@@H]([C@@H](C)O)C(=O)N1)[C@@H](C)O)C(C)C)C(=O)N[C@H](C(=O)N[C@@H](CCC(N)=O)C(=O)N[C@@H](Cc1ccccc1)C(=O)N[C@@H](CO)C(=O)N[C@@H](CC(N)=O)C(=O)N[C@@H](CCCCN)C(=O)N[C@@H](CC(=O)O)C(=O)N[C@@H](CCCCN)C(=O)N[C@@H](C)C(=O)N[C@@H](CCC(N)=O)C(=O)N[C@H](C(=O)N[C@@H](CO)C(=O)N1CCC[C@H]1C(=O)N1CCC[C@H]1C(=O)N[C@H](C(=O)N[C@@H](CCC(=O)O)C(=O)N[C@H](C(=O)NCC(=O)N1CCC[C@H]1C(=O)N[C@@H](CC(N)=O)C(=O)N[C@@H](CO)C(=O)N1C[C@H](O)C[C@H]1C(N)=O)C(C)C)[C@@H](C)O)C(C)C)[C@@H](C)O [compound 9] (H-RCNASTCTVNRLADQITQFSNKDKAQVSPPTEVGPNS[Hyp]-NH2; disulfide 2-7; N-terminus assumed)	0.006	> 5
CC[C@H](C)[C@H](NC(=O)[C@H](CCC(N)=O)NC(=O)[C@H](Cc1c[nH]cn1)NC(=O)[C@H](C)NC(=O)[C@H](CC(C)C)NC(=O)[C@H](CCCNC(=N)N)NC(=O)[C@H](CCC(N)=O)NC(=O)[C@@H](NC(=O)[C@@H](NC(=O)[C@@H]1CSSC[C@H](NC(=O)[C@@H](N)CCCCN)C(=O)N[C@@H](CC(N)=O)C(=O)N[C@@H]([C@@H](C)O)C(=O)N[C@@H](C)C(=O)N[C@@H]([C@@H](C)O)C(=O)N1)[C@@H](C)O)C(C)C)C(=O)N[C@@H](Cc1ccc(O)cc1)C(=O)N[C@@H](CCC(N)=O)C(=O)N[C@@H](Cc1ccccc1)C(=O)N[C@H](C(=O)N[C@@H](CC(=O)O)C(=O)N[C@@H](CCCCN)C(=O)N[C@@H](CC(=O)O)C(=O)N[C@@H](CCCCN)C(=O)N[C@@H](CC(=O)O)C(=O)N[C@@H](CC(N)=O)C(=O)N[C@H](C(=O)N[C@@H](C)C(=O)N1CCC[C@H]1C(=O)N1CCC[C@H]1C(=O)N[C@H](C(=O)N[C@@H](CC(N)=O)C(=O)N[C@H](C(=O)NCC(=O)N[C@@H](CO)C(=O)N[C@@H](CC(N)=O)C(=O)NCC(=O)N1C[C@H](O)C[C@H]1C(N)=O)C(C)C)[C@@H](C)O)C(C)C)[C@@H](C)O [compound 75] (H-KCNTATCTVQRLAHQIYQFTDKDKDNVAPPTNVGSNG[Hyp]-NH2; disulfide 2-7; N-terminus assumed)	0.013	> 5
